Measured values published in ChEMBL document CHEMBL3507680, “University of Dundee, Gates Library screen for HepG2 cell viability”.

Assay: Human HepG2 cell viability assay in 384 well format
Assay type: toxicity, cell-based
Parameters: dose 125 nL, time 70.5 hour; concentration not given beside the values
Settings: HepG2 cells, read-out: Inhibition

Row | Compound | cytotoxicity at 70.5 h
1 | CC(NC(=O)C1=NN(C)C(=O)CC1)c1ccc(Cl)cc1Cl (configuration not stated) | -3.67%
2 | O=C(Nc1cccnc1N1CCCC1)C1CCS(=O)(=O)C1 (configuration not stated) | 1.04%
3 | COc1ccc(Cl)cc1NCc1nc2[nH]c(C)c(C)c(=O)n2n1 | -4.46%
4 | CC(c1nc(-c2ccccc2)no1)N1CCc2c(ncn2C2CC2)C1 (configuration not stated) | -2.24%
5 | Cc1c(C(=O)N2CCCOCC2)nnn1-c1cccc2cnccc12 | -0.438%
6 | COc1ccc(CN2CCN(C(C)=O)CC3(CC(=O)N(C)C3)C2)cc1 (configuration not stated) | -0.064%
7 | Cc1nc(C2CCCN2C(=O)c2csc3c2CCCC3)no1 (configuration not stated) | -1.72%
8 | Cc1nc(N2CCCC2)nc2c1CCN(Cc1ccsc1)CC2 | 6.56%
9 | CN(C)CCN1CCOCC2(C1)CN(Cc1ccco1)CCO2 (configuration not stated) | -17.1%
10 | Cc1nccn1CCC1CCCCN1Cc1ccc(N(C)C)nc1 (configuration not stated) | -10.4%
11 | CCN1C(=O)CC[C@]12CC[C@@H](NC(=O)c1ccncc1F)CC2 | -6.51%
12 | CC1CCCN(CCNC(=O)c2cncnc2C(C)C)C1 (configuration not stated) | -4.07%
13 | COCC(=O)N1CCC2(CC1)CC(CC(=O)NC1CC1)c1ccccc12 (configuration not stated) | -18.5%
14 | CN(CC(=O)NCCc1cc2ccccc2o1)S(C)(=O)=O | 13.9%
15 | CCn1ncc(-c2cc(C(F)F)nc3sc(C(N)=O)c(N)c23)c1C | 9.78%
16 | NC(=O)N1CCCC(C(=O)NCCOc2ccc(F)c(F)c2)C1 (configuration not stated) | -12.7%
17 | N#CC(NC(=O)CCCOc1cccnc1)c1ccc(F)cc1F (configuration not stated) | 6.82%
18 | CCCc1cnc(C)nc1NC(C)Cc1cnccn1 (configuration not stated) | -5.97%
19 | CC(C)CC(CCO)CNC(=O)N1CC(C)(C)C1(C)C (configuration not stated) | -7.83%

Row | Compound | cytotoxicity at 70.5 h
20 | CCCN1CCC(Cc2noc(-c3cc4cccnc4nc3C)n2)CC1 | 0.578%
21 | O=C1CN([C@@H]2CC[C@@H](NS(=O)(=O)c3ccc(F)cc3)[C@H]2O)CCN1 | 4.31%
22 | CC(C(=O)N1CCCC1)S(=O)(=O)Cc1noc(C(C)(C)C)n1 (configuration not stated) | -2.28%
23 | COCC(=O)N1CCc2cccc(S(=O)(=O)N3CCN(C)CC3)c2C1 | -2.39%
24 | CC(C)CNC(=O)CNC(=O)NC(c1nccs1)C1CC1 (configuration not stated) | 4.02%
25 | Cc1ccc(CNC(=O)c2nn(C)c3c2CS(=O)(=O)CC3)o1 | -2.5%
26 | COc1cccc(C(=O)N2C[C@@H](CN(C)CCO)[C@@H](CO)C2)c1C | 23.8%
27 | CN1CCCC(N(C)S(=O)(=O)c2cccc3ncccc23)C1 (configuration not stated) | -1.85%
28 | COc1ccnc(NC(Cc2ccccc2)C(N)=O)n1 (configuration not stated) | -3.74%
29 | COCC(=O)N1CCc2c(nnn2C)C1COCCN1CCCC1 (configuration not stated) | -2.45%
30 | Cn1ccnc1CN1CCN(CC2CC2)[C@@H]2CS(=O)(=O)C[C@@H]21 | -7.65%
31 | O=C1CC[C@H]2CN(Cc3ccc(Cl)s3)CC[C@H]2N1CCc1c[nH]cn1 | -7.7%
32 | CCc1ncc(CNC2CC(=O)N(CCc3cccc(Cl)c3)C2)cn1 (configuration not stated) | -4.07%
33 | COc1ccccc1C(=O)N(C)Cc1ncc(C)c(OC)c1C | -6.37%
34 | COC1(CNC(=O)NCc2ccccc2)CCSC1 (configuration not stated) | -9.9%
35 | Cc1cc(CN(C)C(=O)C(c2ccccc2)N2CCSCC2)no1 (configuration not stated) | 8.49%
36 | Cc1cc(C(F)(F)F)nc(N2CCN3CCCC3C2)n1 (configuration not stated) | -10.5%
37 | COc1ccc(C(CN2CCN(C)CC2)Nc2ncccn2)cc1 (configuration not stated) | 0.96%
38 | Cc1ccc(O)c(CNC2CCc3nc(C)nn3C2)n1 (configuration not stated) | -0.718%

Row | Compound | cytotoxicity at 70.5 h
39 | Cc1ccc(CN(C)C)cc1NC(=O)C1CC1 | -9.96%
40 | Cc1ncsc1C(=O)N1CC[C@@]2(O)CCN(C(=O)N3CCCC3)C[C@H]2C1 | 12.8%
41 | CC(C)=CCN1CCN(Cc2nccn2C)C(C)C1 (configuration not stated) | 22%
42 | CC(CNC(=O)Nc1ccc(C#N)cc1)N1CCc2ccccc21 (configuration not stated) | 4.28%
43 | O=c1ccc2c(n1CC1CC1)CCN(c1ncccn1)CC2 | -4.49%
44 | CCCc1n[nH]c(=O)n1[C@@H](CC)c1ccccc1 | -10.8%
45 | CCOc1ccc(N2CCCN=C2NC(=O)c2cccc(C)c2)cc1 | -6.22%
46 | Cc1nn(C)c(C)c1NC(=O)CN1CCc2c(nc(C3CC3)n2C)C1 | 12.4%
47 | Cc1cccc(C(=O)N2CCN(C)CC2)c1NC(=O)c1ccncc1 | 17.6%
48 | CC(C)[C@H](NS(C)(=O)=O)C(=O)NCc1cc(-c2ccco2)n[nH]1 | -13.8%
49 | CCCNC(=O)CN(C)C1CCN(c2ccc(Cl)cc2)CC1 | -6.78%
50 | O[C@@H]1CN(Cc2ccncc2)C[C@H]1Oc1ccccc1 | -5.71%
51 | CCN1CCC2(CN(C(C)=O)CC23CCN(C(=O)N(C)C)CC3)C1=O (configuration not stated) | -9.48%
52 | CNC(=O)COc1ccc(-c2ccccc2)nc1 | -7.98%
53 | O=C(CCN1CCCO1)N1CCCC(CO)(CCCc2ccccc2)C1 (configuration not stated) | -8.66%
54 | Cc1nn(CC(C)C)c(N(C)C)c1CNCc1ccccc1CO | -0.0473%
55 | O=C1[C@H]2CN(S(=O)(=O)C3CC3)C[C@H]2CN1CC1CC1 | 0.281%
56 | O=C(NCCCO)c1cnc(-c2ccccc2)nc1O | -2.27%
57 | Cn1cc(CNCCc2nccs2)c(-c2cccnc2)n1 | -8.44%
